Laboratory results published in patent EP0726261A1, “Herbidical 1,2,4 thiadiazoles” (American Cyanamid Company, priority 1995, dated 1996).

Assays:
Format in all cases: in vivo
[1] = test system: Setaria viridis; assay: Preemergence herbicidal activity (Example 67); conditions: pre, 800 g/ha
Method: (§1) Herbicidal evaluation of compounds of the invention is conducted on the following plant species:
(§2) The soil is a prepared horticultural substrate containing 30% peat, 20% volcanic clay, 30% bark residues and 20% polyamide/styromull in a 1:3 mixture with loamy sand. Test solutions are prepared by dissolving the test compound in acetone containing 0.5% of an alkylphenol/ethylene oxide condensate under the trademark, TRITON® X-155, and diluting with water as needed. The test solutions are applied as a spray to the 3-6 week old seedling plants at dose rates corresponding to 800g/ha in a volume equivalent to 400 L/ha. A pneumatic spraying device employing a Teejet nozzle SS 8002E operating at 3 bar is used for a predetermined time. After spraying, the treated plants are placed on greenhouse benches and cared for in a manner commensurate with conventional greenhouse practice. After 10-21 days, the treated plants are evaluated and rated according to the rating system provided below.
(§3) The soil surface is then sprayed with test solutions as described in the postemergence evaluation hereinabove. After spraying, the treated cups are placed on greenhouse benches and cared for in the manner commensurate with conventional greenhouse practice. About 1-3 weeks after treatment the cups are evaluated and rated according to the rating system provided hereinabove.

[2] = test system: Alopecurus myosuroides; assay: Preemergence herbicidal activity (Example 67); conditions: pre, 800 g/ha
Method: as §1, §2, §3

[3] = test system: Amaranthus retroflexus; assay: Preemergence herbicidal activity (Example 67); conditions: pre, 800 g/ha
Method: as §1, §2, §3

[4] = test system: Helianthus annuus; assay: Preemergence herbicidal activity (Example 67); conditions: pre, 800 g/ha
Method: as §1, §2, §3

[5] = test system: Ipomoea hederacea; assay: Preemergence herbicidal activity (Example 67); conditions: pre, 800 g/ha
Method: as §1, §2, §3

[6] = test system: Galium aparine; assay: Preemergence herbicidal activity (Example 67); conditions: pre, 800 g/ha
Method: as §1, §2, §3

[7] = test system: Veronica persica; assay: Preemergence herbicidal activity (Example 67); conditions: pre, 800 g/ha
Method: as §1, §2, §3

[8] = test system: Zea mays; assay: Preemergence herbicidal activity (Example 67); conditions: pre, 800 g/ha
Method: as §1, §2, §3

[9] = test system: Chenopodium album; assay: Preemergence herbicidal activity (Example 67); conditions: pre, 800 g/ha
Method: as §1, §2, §3

[10] = test system: Abutilon theophrasti; assay: Preemergence herbicidal activity (Example 67); conditions: pre, 800 g/ha
Method: as §1, §2, §3

[11] = test system: Amaranthus retroflexus; assay: Postemergence herbicidal activity (Example 67); conditions: pos, 800 g/ha
Method: as §1, §2

[12] = test system: Helianthus annuus; assay: Postemergence herbicidal activity (Example 67); conditions: pos, 800 g/ha
Method: as §1, §2

[13] = test system: Setaria viridis; assay: Postemergence herbicidal activity (Example 67); conditions: pos, 800 g/ha
Method: as §1, §2

[14] = test system: Hordeum vulgare; assay: Postemergence herbicidal activity (Example 67); conditions: pos, 800 g/ha
Method: as §1, §2

[15] = test system: Ipomoea hederacea; assay: Postemergence herbicidal activity (Example 67); conditions: pos, 800 g/ha
Method: as §1, §2

[16] = test system: Triticum aestivum; assay: Postemergence herbicidal activity (Example 67); conditions: pos, 800 g/ha
Method: as §1, §2

[17] = test system: Galium aparine; assay: Postemergence herbicidal activity (Example 67); conditions: pos, 800 g/ha
Method: as §1, §2

[18] = test system: Veronica persica; assay: Postemergence herbicidal activity (Example 67); conditions: pos, 800 g/ha
Method: as §1, §2

[19] = test system: Zea mays; assay: Postemergence herbicidal activity (Example 67); conditions: pos, 800 g/ha
Method: as §1, §2

[20] = test system: Chenopodium album; assay: Postemergence herbicidal activity (Example 67); conditions: pos, 800 g/ha
Method: as §1, §2

[21] = test system: Abutilon theophrasti; assay: Postemergence herbicidal activity (Example 67); conditions: pos, 800 g/ha
Method: as §1, §2

[22] = test system: Alopecurus myosuroides; assay: Postemergence herbicidal activity (Example 67); conditions: pos, 800 g/ha
Method: as §1, §2

[23] = test system: Hordeum vulgare; assay: Preemergence herbicidal activity (Example 67); conditions: pre, 800 g/ha
Method: as §1, §2, §3

[24] = test system: Triticum aestivum; assay: Preemergence herbicidal activity (Example 67); conditions: pre, 800 g/ha
Method: as §1, §2, §3

Compound | SET VI rating [1] | ALO MY rating [2] | AMA RE rating [3] | HEL AN rating [4] | IPO HE rating [5] | GAL AP rating [6] | VER PE rating [7] | ZEA MX rating [8] | CHE AL rating [9] | ABU TH rating [10] | AMA RE rating [11] | HEL AN rating [12] | SET VI rating [13] | HOR VW rating [14] | IPO HE rating [15] | TRZ AW rating [16] | GAL AP rating [17] | VER PE rating [18] | ZEA MX rating [19] | CHE AL rating [20] | further results
COc1ccc(-c2nc(C(=O)NC(C)c3cccs3)ns2)cc1 (racemic) [Example 51, (R/S)-5-(4-Methoxyphenyl)-[1,2,4]thiadiazole-3-carboxylic acid, [1-(2-thienyl)ethyl]amide] | 0 | 3 (16-29%) | 5 (45-64%) | 1 (1-5%) | 0 | 0 | 0 | 0 | 0 | 3 (16-29%) | 4 (30-44%) | 8 (91-99%) | 8 (91-99%) | 5 (45-64%) | 8 (91-99%) | 3 (16-29%) | 6 (65-79%) | 8 (91-99%) | 5 (45-64%) | 4 (30-44%) | ABU TH rating [21]: 6 (65-79%); ALO MY rating [22]: 5 (45-64%); HOR VW rating [23]: 2 (6-15%); TRZ AW rating [24]: 2 (6-15%)
COc1ccc(-c2nsc(C(=O)NC3CCCc4ccccc43)n2)cc1 (racemic) [Example 54] | 0 | 0 | 0 | 0 | 0 | 0 | 0 | 0 | 0 | 0 | 0 | 4 (30-44%) | 3 (16-29%) | 3 (16-29%) | 2 (6-15%) | 1 (1-5%) | 3 (16-29%) | 0 | 4 (30-44%) | 2 (6-15%) | ABU TH rating [21]: 2 (6-15%); ALO MY rating [22]: 2 (6-15%); HOR VW rating [23]: 0; TRZ AW rating [24]: 0
O=C(Nc1ccccc1)c1nsc(-c2cccc(C(F)(F)F)c2)n1 [Example 64] | 2 (6-15%) | 0 | 0 | 0 | 3 (16-29%) | 0 | 0 | 0 | 0 | 0 | 0 | 0 | 4 (30-44%) | 1 (1-5%) | 0 | 2 (6-15%) | 0 | 0 | 1 (1-5%) | 0 | ABU TH rating [21]: 1 (1-5%); ALO MY rating [22]: 2 (6-15%); HOR VW rating [23]: 0; TRZ AW rating [24]: 2 (6-15%)
CC(NC(=O)c1nc(-c2cccc(F)c2)ns1)c1cccs1 (racemic) [Example 43] | 0 | 0 | 0 | 0 | 2 (6-15%) | 2 (6-15%) | 2 (6-15%) | 0 | 4 (30-44%) | 0 | 0 | 3 (16-29%) | 3 (16-29%) | 2 (6-15%) | 2 (6-15%) | 2 (6-15%) | 2 (6-15%) | 2 (6-15%) | 0 | 4 (30-44%) | ABU TH rating [21]: 1 (1-5%); ALO MY rating [22]: 1 (1-5%); HOR VW rating [23]: 0; TRZ AW rating [24]: 0
